From ChEMBL document CHEMBL3885881, “DrugMatrix”

Species on record: Rattus norvegicus
Test: DrugMatrix - Regimen: Daily Repeat
Format: toxicity, organism-based, Sprague-Dawley
Design: regimen Daily Repeat, gender Male, age 6-8 weeks
Settings: in vivo, po, route oral GAVAGE, […]; for TOTAL PROTEIN / ALANINE AMINOTRANSFERASE / ALBUMIN / ALKALINE PHOSPHATASE / ASPARTATE AMINOTRANSFERASE / BLOOD UREA NITROGEN / CARBON DIOXIDE / CHLORIDE / CHOLESTEROL / CREATINE PHOSPHOKINASE / CREATININE / GLUCOSE / LACTATE DEHYDROGENASE / LIPASE / PHOSPHORUS / POTASSIUM / SODIUM / TOTAL BILIRUBIN: tissue Plasma; for ABSOLUTE BASOPHIL / ABSOLUTE EOSINOPHIL / ABSOLUTE LYMPHOCYTE / ABSOLUTE MONOCYTE / ABSOLUTE SEGMENTED NEUTROPHIL / BASOPHIL / EOSINOPHIL / ERYTHROCYTE COUNT / HEMATOCRIT / HEMOGLOBIN / LEUKOCYTE COUNT / LYMPHOCYTE / MEAN CORPUSCULAR HEMOGLOBIN / MEAN CORPUSCULAR HEMOGLOBIN CONCENTRATION / MEAN CORPUSCULAR VOLUME / MONOCYTE / NEUTROPHIL / NUCLEATED RED BLOOD CELLS / PLATELET COUNT: tissue Blood
[1] = 40 mg/kg, 120 h, dose level Low, time 5 day
[2] = 90 mg/kg, 72 h, dose level High, time 3 day
[3] = 90 mg/kg, 120 h, dose level High, time 5 day

CN(C)CCCC1(c2ccc(F)cc2)OCc2cc(C#N)ccc21 (stereo not given) [CITALOPRAM]
TOTAL PROTEIN (40 mg/kg, 72 h, dose level Low, time 3 day): 4.8 G/DL | ABSOLUTE BASOPHIL [1]: 0 CELLS/uL | ABSOLUTE EOSINOPHIL [1]: 0 CELLS/uL | ABSOLUTE LYMPHOCYTE [1]: 8782.67 CELLS/uL | ABSOLUTE MONOCYTE [1]: 193 CELLS/uL | ABSOLUTE SEGMENTED NEUTROPHIL [1]: 424.33 CELLS/uL | BASOPHIL [1]: 0% | EOSINOPHIL [1]: 0% | ERYTHROCYTE COUNT [1]: 5.43 x10E6/uL | HEMATOCRIT [1]: 34.67% | HEMOGLOBIN [1]: 13.13 G/DL | LEUKOCYTE COUNT [1]: 9.4 x10E3/uL | LYMPHOCYTE [1]: 93.67% | MEAN CORPUSCULAR HEMOGLOBIN [1]: 24.23 pg | MEAN CORPUSCULAR HEMOGLOBIN CONCENTRATION [1]: 37.87 G/DL | MEAN CORPUSCULAR VOLUME [1]: 63.9 fL | MONOCYTE [1]: 2% | NEUTROPHIL [1]: 4.33% | NUCLEATED RED BLOOD CELLS [1]: 0 /100WBC | PLATELET COUNT [1]: 1141.33 x10E3/uL | ALANINE AMINOTRANSFERASE [1]: 63 u/L | ALBUMIN [1]: 3.87 G/DL | ALKALINE PHOSPHATASE [1]: 433.67 u/L | ASPARTATE AMINOTRANSFERASE [1]: 95 u/L | BLOOD UREA NITROGEN [1]: 10.67 mg/dL | CARBON DIOXIDE [1]: 31.33 mmol/L | CHLORIDE [1]: 100.67 MEQ/L | CHOLESTEROL [1]: 73 mg/dL | CREATINE PHOSPHOKINASE [1]: 389.67 u/L | CREATININE [1]: 0.14 mg/dL | GLUCOSE [1]: 160 mg/dL | LACTATE DEHYDROGENASE [1]: 173.67 u/L | LIPASE [1]: 10.67 u/L | PHOSPHORUS [1]: 10.57 mg/dL | POTASSIUM [1]: 5.68 MEQ/L | SODIUM [1]: 145.67 MEQ/L | TOTAL BILIRUBIN [1]: 0.1 mg/dL | TOTAL PROTEIN [1]: 5.87 G/DL | ABSOLUTE BASOPHIL [2]: 0 CELLS/uL | ABSOLUTE EOSINOPHIL [2]: 0 CELLS/uL | ABSOLUTE LYMPHOCYTE [2]: 13332.67 CELLS/uL | ABSOLUTE MONOCYTE [2]: 32 CELLS/uL | ABSOLUTE SEGMENTED NEUTROPHIL [2]: 868.67 CELLS/uL | BASOPHIL [2]: 0% | EOSINOPHIL [2]: 0% | ERYTHROCYTE COUNT [2]: 5.39 x10E6/uL | HEMATOCRIT [2]: 34.6% | HEMOGLOBIN [2]: 13.63 G/DL | LEUKOCYTE COUNT [2]: 14.23 x10E3/uL | LYMPHOCYTE [2]: 93.67% | MEAN CORPUSCULAR HEMOGLOBIN [2]: 25.3 pg | MEAN CORPUSCULAR HEMOGLOBIN CONCENTRATION [2]: 39.4 G/DL | MEAN CORPUSCULAR VOLUME [2]: 64.2 fL | MONOCYTE [2]: 0.33% | NEUTROPHIL [2]: 6% | NUCLEATED RED BLOOD CELLS [2]: 0 /100WBC | PLATELET COUNT [2]: 1096.33 x10E3/uL | ALANINE AMINOTRANSFERASE [2]: 59.67 u/L | ALBUMIN [2]: 3.87 G/DL | ALKALINE PHOSPHATASE [2]: 376.33 u/L | ASPARTATE AMINOTRANSFERASE [2]: 89 u/L | BLOOD UREA NITROGEN [2]: 9.33 mg/dL | CARBON DIOXIDE [2]: 26.67 mmol/L | CHLORIDE [2]: 102.5 MEQ/L | CHOLESTEROL [2]: 65.67 mg/dL | CREATINE PHOSPHOKINASE [2]: 142.33 u/L | CREATININE [2]: 0.11 mg/dL | GLUCOSE [2]: 156 mg/dL | LACTATE DEHYDROGENASE [2]: 214.33 u/L | PHOSPHORUS [2]: 10.6 mg/dL | POTASSIUM [2]: 6.1 MEQ/L | SODIUM [2]: 145.75 MEQ/L | TOTAL BILIRUBIN [2]: 0.2 mg/dL | TOTAL PROTEIN [2]: 5.5 G/DL | ABSOLUTE BASOPHIL [3]: 0 CELLS/uL | ABSOLUTE EOSINOPHIL [3]: 0 CELLS/uL | ABSOLUTE LYMPHOCYTE [3]: 14553.33 CELLS/uL | ABSOLUTE MONOCYTE [3]: 322.67 CELLS/uL | ABSOLUTE SEGMENTED NEUTROPHIL [3]: 1290.67 CELLS/uL | BASOPHIL [3]: 0% | EOSINOPHIL [3]: 0% | ERYTHROCYTE COUNT [3]: 5.96 x10E6/uL | HEMATOCRIT [3]: 37.47% | HEMOGLOBIN [3]: 14.47 G/DL | LEUKOCYTE COUNT [3]: 16.17 x10E3/uL | LYMPHOCYTE [3]: 90.67% | MEAN CORPUSCULAR HEMOGLOBIN [3]: 24.33 pg | MEAN CORPUSCULAR HEMOGLOBIN CONCENTRATION [3]: 38.67 G/DL | MEAN CORPUSCULAR VOLUME [3]: 62.9 fL | MONOCYTE [3]: 2% | NEUTROPHIL [3]: 7.33% | NUCLEATED RED BLOOD CELLS [3]: 0 /100WBC | PLATELET COUNT [3]: 1137 x10E3/uL | ALANINE AMINOTRANSFERASE [3]: 40.33 u/L | ALBUMIN [3]: 4 G/DL | ALKALINE PHOSPHATASE [3]: 365 u/L | ASPARTATE AMINOTRANSFERASE [3]: 81.67 u/L | CARBON DIOXIDE [3]: 28.67 mmol/L | CHLORIDE [3]: 100 MEQ/L | CHOLESTEROL [3]: 70.33 mg/dL | CREATINE PHOSPHOKINASE [3]: 309.67 u/L | CREATININE [3]: 0.14 mg/dL | GLUCOSE [3]: 179.33 mg/dL | LACTATE DEHYDROGENASE [3]: 263 u/L | LIPASE [3]: 10.67 u/L | PHOSPHORUS [3]: 11.03 mg/dL | POTASSIUM [3]: 5.22 MEQ/L | SODIUM [3]: 145.33 MEQ/L | TOTAL BILIRUBIN [3]: 0.13 mg/dL | TOTAL PROTEIN [3]: 6.03 G/DL
